The target of one assay is human IgG1 (Homo sapiens, UniProt P01857). Put plainly: SPR (BIAcore T200) measurement of binding affinity of crosslinked cyclic peptide to immobilized IgG. As to the method:
The affinity analysis was performed by the following method. First, a CM5 sensor chip was installed on BIAcoreT200 (GE healthcare), and 0.4 M 1-ethyl-3-(3-dimethylaminopropyl)carbodiimide (EDC) and a 0.1 M sulfo-N-hydroxysuccinimide (sulfo-NHS) solution mixed in equivalent amounts were injected to the sensor chip at a flow rate of […], to thereby activate the sensor chip. Thereafter, IgG was immobilized onto the sensor chip under a condition of a pH of 5.5 (10 mM Na acetate). An HBS-EP buffer (10 mM HEPES, 150 mM NaCl, 0.005% Tween 20, 3 mM EDTA, pH 7.4) was used in measurement, and 15.625, 31.2, 62.5, 125, 250, and 500 nM of peptides were each injected at a flow rate of […] for 180 seconds, to thereby monitor binding reaction. When dissociation reaction was measured, only the buffer was injected for 600 seconds. The interaction parameter was analyzed with BIAevaluation T100 software.
IgG-binding peptide derivatives compared and evaluated are illustrated in FIG. 1.

The test system of a further assay is human serum-derived IgG. Put plainly: Dynamic binding capacity (DBC) measurement and alkali resistance evaluation of peptide-immobilized column. Conditions: initial value; 1 mg peptide on 1-mL column, 1 mL/min. On the procedure:
Five mL of 1 mM hydrochloric acid was sent to an NHS-activated prepacked column having a volume of 1 mL, and an isopropanol solution in the column was removed. Next, a 10.0 mg/mL peptide solution (dissolved in 100 μL of DMSO) was diluted with a coupling solution (20 mM carbonate buffer, 50 mM sodium chloride, pH 8.3) by 10-fold, 1 mL of the dilution liquid was sent, and immobilization was performed at room temperature for 4 hours. Thereafter, unreacted NHS was blocked by 5 mL of 1 M Tris (pH 8.0) at room temperature for 1 hour. Thereafter, washing with 5 mL of an aqueous 0.1 N NaOH solution was made. Finally, 10 mL of a PBS solution (20 mM phosphate buffer, 150 mM sodium chloride, pH 7.4) was sent, and used in chromatography evaluation.
A column where the amount of immobilization of a peptide was 1 mg was produced by the same method as described above. The column produced was equilibrated with PBS, and 1 mg/mL human serum-derived IgG (manufactured by Sigma-Aldrich Co. LLC) dissolved in PBS was sent at a flow rate of 1 mL/min (retention time 1 min). DBC was indicated as one determined from the amount of a protein added at the time of point where 10% of the absorbance at 280 nm of the sample added was leaked.
Next, 5 mL of an aqueous 0.1 N sodium hydroxide solution was sent to the 1-mL column where 1 mg of the peptide was immobilized. Thereafter, washing with PBS was performed. This cycle was repeated 30 times for the 1,1-dichloroacetone-crosslinked cyclic peptide, and was repeated 10 times for the 1,1-dichloropinacolin-crosslinked cyclic peptide. DBC measurement was performed at a flow rate of 1 mL/min at the 1st to 5th and 10th times of the cycles, and further performed at the 20th and 30th times of the cycles with respect to the 1,1-dichloroacetone-crosslinked cyclic peptide, and thus alkali resistance was evaluated. The variation in DBC was determined based on the measurement results under the assumption that DBC immediately after column production was 100% according to Table 2.
Five mL of a 0.1 M sodium hydroxide solution was sent to the produced 1-mL column where the amount of immobilization of a peptide was 1 mg, and thereafter washing with 5 mL of PBS was performed. These operations were defined as one cycle and treatment of washing with aqueous NaOH solution/washing with PBS was performed 1 to 30 times, and thereafter DBC measurement was performed at a flow rate of 1 mL/min at the intended number of times (1, 2, 3, 4, 5, 10, 20, 30 times).

In another assay the target is IgG. Conditions: Patent Literature 2; read-out: Kd (affinity with IgG); cited from earlier work.

Starred links: 1 amine or outer side, 2 acyl side, 3 side chain; linkers in the order of their positions; H or OH if unused. Positions of bridges follow the written chain, without caps; N, C: chain ends. Residues, ends and D or L forms follow the SMILES beside them. CH2COCH2 = O=C(C[*:1])C[*:2]

Sequence of human IgG1 (P01857 1-328 limits assumed): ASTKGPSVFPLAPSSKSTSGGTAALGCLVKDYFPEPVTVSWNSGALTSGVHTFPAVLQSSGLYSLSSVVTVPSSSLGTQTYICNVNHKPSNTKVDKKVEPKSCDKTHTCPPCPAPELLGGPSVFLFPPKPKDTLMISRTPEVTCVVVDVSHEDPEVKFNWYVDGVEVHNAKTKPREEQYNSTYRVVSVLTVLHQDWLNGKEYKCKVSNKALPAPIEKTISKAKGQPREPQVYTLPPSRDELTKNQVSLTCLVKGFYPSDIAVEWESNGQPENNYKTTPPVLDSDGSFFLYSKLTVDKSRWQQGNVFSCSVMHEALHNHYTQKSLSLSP

One may read the Kd as the constant that tells how readily two partners part at equilibrium. In the case of `CC(C)C[C@@H]1NC(=O)[C@H](CCC(=O)O)NC(=O)CNC(=O)[C@H](CCCNC(=N)N)NC(=O)[C@H](Cc2c[nH]cn2)NC(=O)[C@H](Cc2ccc(O)cc2)NC(=O)[C@H](C)NC(=O)[C@@H](NC(=O)[C@H](CC(=O)O)NC(=O)[C@@H]2CCCN2C(=O)CNC(=O)[C@H](CO)NC(=O)CNC(=O)CNC(=O)[C@H](CO)NC(=O)CN)CSCC(=O)CSC[C@@H](C(=O)N[C@H](C(=O)N[C@@H](Cc2ccccc2)C(=O)N[C@@H](Cc2c[nH]cn2)C(=O)O)[C@@H](C)O)NC(=O)[C@H](Cc2c[nH]c3ccccc23)NC(=O)[C@H](C(C)C)NC1=O` [IgG-BP-LongGS 1,3-dichloroacetone] (H-GSGGSGPDCAYHRGELVWCTFH-OH; linker 9-19 via CH2COCH2; N-terminus and C-terminus assumed), the “reduction of affinity as compared with the original peptide” value on human IgG1 (Kd relative to original disulfide IgG-binding peptide) is listed as “about 500 fold”. The same molecule showed a kd on human IgG1 (SPR, IgG immobilized on CM5 chip, HBS-EP pH 7.4) of 0.005. The molecule also gave a ka on human IgG1 (SPR, IgG immobilized on CM5 chip, HBS-EP pH 7.4, in M-1 s-1 (unit assumed)) of 1.00E+03. In the assay with human serum-derived IgG, the “initial value of DBC of peptide column” value is listed as 2.3 mg/mL-column. The Kd on IgG is 4.9 µM.

(Values after patent publication US20240391950A1, “PEPTIDE CROSSLINKING AGENT AND CROSSLINKED PEPTIDE WHICH IS CROSSLINKED USING SAID CROSSLINKING AGENT” (Kagoshima University, priority 2020, published 2024).)
